Laboratory results reported in US10946019B2, “Nurr1:RXR activating compounds for simultaneous treatment of symptoms and pathology of Parkinson's disease” (priority 2015, dated 2021).

Assays:
[1] = tested on: striatal DA levels; test: Striatal dopamine and metabolite levels by HPLC-ECD in wild type mice; assay type: in vivo, mouse
Experimental: 4 hours after dosing, animals were killed by cervical dislocation, brains were removed, and the striata were dissected on ice. The samples were immediately frozen and stored at −80° C. until use. The tissues were processed for the analysis by high performance liquid chromatography (HPLC) with an electrochemical detector (ECD) (Emmanouil et al., 2006). The dissected tissues were weighed, homogenized, and deproteinized in 0.2N perchloric acid solution containing 7.9 mM Na2S2O5 and 1.3 mM Na2EDTA. The homogenate was centrifuged at 37,000×g for 30 minutes, and the supernatant was stored at −80° C. until assayed. A reverse-phase ion-pair chromatography was used in all analyses, and the mobile phase consisted of an acetonitrile-50 mM phosphate buffer at pH 3.0, containing 5-octylsulfate sodium salt (300 mg/L) as the ion-pair reagent and (20 mg/L) Na2EDTA. Reference standards were prepared in 0.2 N perchloric acid solution containing 7.9 mM Na2S2O5 and 1.3 mM Na2EDTA. Samples were quantified by comparison of the areas under the peaks with those of reference standards using HPLC software (Chromatography Station for Windows™, Watrex International Inc., San Francisco, Calif.). […]

[2] = tested on: SHSY-5Y dopaminergic cells; test: MPP+ induced cell death, MTT assay; assay type: cell-based, human
Experimental: (§1) MPP+, eradicates approximately 75% of the cells in 24 hours. […] Naive Neuro2A cells (FIG. 2A) or SH-SY5Y neuroblastoma cells FIG. 2B,C) were cultured in RPMI 1640, 10% fetal bovine serum at 37° C. Cells were pretreated with compound 3 for 12-24 h. Subsequent change of culture medium with addition of 0, 1, 2 and 4 mM MPP+ induced cell death. MTT assays determined the relative number of surviving cells FIG. 2D).
Such assays were performed, for instance, by adding compound 46 (12.5 μM) to human origin SHSY-5Y dopaminergic cells in which death was induced by the mitochondria complex I inhibitor MPP+ (1-methyl-4-phenylpyridinium), the active metabolite of MPTP (1-methyl-4-phenyl-1,2,3,6-tetrahydropyridine). […] Most of the MPP+-treated cells receiving vehicle died, while the few surviving cells remained attached to the plate but were rounded and had lost all projections. These morphological changes indicated impaired neuronal function. On the contrary, cells treated with compound 46 appeared healthy, flattened, well-attached, and their projections remained intact.
(§2) We examined the neuroprotective capability of Nurr1:RXRα heterodimer activation in SHSY-5Y cells where death was induced by either the oxidative stress related H2O2 or the mitochondria complex I inhibitor MPP+ (1-methyl-4-phenylpyridinium) (FIG. 72B). […] The protection conferred by compound 3 was Nurr1-dependent, since it was abrogated by knocking-down endogenous Nurr1 mRNA (FIGS. 1E and 72D). The neuroprotective effects of compound 3 extend to damage induced by the PD-associated mutation G2019S in the Leucine-Rich Repeat Kinase 2 (LRRK2) gene, the most common genetic defect associated with clinical PD (Tofaris et al. J. Neurosci. 26:3942-3950, 2006). Rat cortical neurons, co-transfected with CMV-GFP for identification, and CMVLRRK2-G2019S cDNAs show increased apoptosis as assessed by DAPI staining, compared to control neurons co-transfected with a LRRK2 wt cDNA.

[3] = tested on: SHSY-5Y cells; test: H2O2 induced cell death, MTT assay; assay type: cell-based, human; settings: 12.5 μM, varying concentrations of H2O2
Excerpt: (§3) FIGS. 72A-72R show the ability of compound 3 to induce the expression of genes involved in dopamine biosynthesis as well as the neuroprotective effects of compound 3 in cell lines and patient iPCs-derived dopaminergic neurons. […] FIGS. 72F, 72G, 72H, and 72I show representative confocal microscopy images of the compound 3-treated primary rat cortical neurons. […] FIG. 72M-72R show the effects of compound 3 on PD patient iPS cell-derived dopaminergic neurons with the LRRK2-G2019S mutation or corrected mutation (GC). Compound 3 treatment rescues neurite length (M, expressed in […]), number (N) and branching (O) phenotypes. Representative images show staining with TuJ, TH and DAPI (FIGS. 72P, 72Q, and 72R).
as §2, with “The neuroprotective effects of compound 3 extend to damage induced by the PD-associated mutation G2019S in the Leucine-Rich Repeat Kinase 2 (LRRK2) gene, the most common genetic defect associated with clinical PD (Tofaris et al. J. Neurosci. 26:3942-3950, 2006).” left out

[4] = tested on: C57BL/6 mice injected unilaterally with 6-OHDA; test: Neuroprotection in the unilateral 6-OHDA mouse model; settings: for reduction of apomorphine induced contralateral turns: 10 mg/kg IP every 12 hours
[5] = tested on: GCH1; test: Expression of DA biosynthesis genes in SHSY-5Y by qPCR; assay type: cell-based, human; settings: 12.5 μM, vs vehicle
Excerpt: as §3
(§4) Nurr1 regulates the transcription of DA biosynthesis genes (Kim et al. J. Neurochem. 85:622-634, 2003 and Gil et al. J Neurochem 101:142-150, 2007); however, whether this process is mediated by Nurr1:RXRα heterodimers is unknown.

[6] = tested on: aromatic L-amino acid decarboxylase (AADC); test: as above; assay type: cell-based, human; settings: 12.5 μM, vs vehicle
Excerpt: as §3, §4

[7] = tested on: Neuro2A cells; test: MPP+ induced toxicity in Neuro2A cells; assay type: cell-based
Experimental: as §1

[8] = tested on: human midbrain-specific iPSc-derived DAergic neurons; test: Survival of iPSc-derived DAergic neurons exposed to MPP+; assay type: cell-based; settings: within 24 hours, compared to vehicle
Experimental: To ascertain the translational therapeutic potential of compound 3, we tested whether human midbrain-specific iPSc-derived DAergic neurons, as indicated by positive staining and qPCR for the neuronal markers MAP2, TH, FoxA2, Lmx1 and En1, can be protected from MPP+ toxicity. Compound 3 was able to double the number of surviving neurons after MPP+ exposure within 24 hours, compared to vehicle (FIGS. 72J-72L). The surviving control neurons had fewer and retreating projections, indicating compromised function (FIG. 72K) while the neurons that had received compound 3 had retained a complex network of projections and contacts (FIG. 72L). In addition, we tested compound 3 in iPSc-derived DAergic neurons from a PD patient carrying the LRRK2-G2019S mutation.

[9] = tested on: ASYN transgenic mice; test: Striatal dopamine levels in ASYN transgenic mice by HPLC; assay type: in vivo, mouse; settings: single IP 10 mg/kg, vs vehicle
Experimental: Given the role of Nurr1:RXRα activation in the transcriptional regulation of DA biosynthesis genes, we tested whether compound 3 could increase DA levels in wt and ASYN transgenic mice (Tofaris et al. J. Neurosci. 26:3942-3950, 2006), which display reduced striatal DA levels after reaching adulthood. […] Aiming to model PD based on human genetic data, we also tested whether compound 3 could increase DA levels in ASYN transgenic mice. A single IP injection of compound 3 (10 mg/kg) was able increase striatal DA (t test p=0.01069) and DA metabolite levels in ASYN transgenics as well (FIG. 75C) in comparison to mice receiving vehicle.

C=CCc1c(N(C)c2ccc(C(=O)O)cc2)nc(-c2ccccc2)nc1C(F)(F)F [Example 3, 4-((5-allyl-2-phenyl-6-(trifluoromethyl)pyrimidin-4-yl)(methyl)amino)benzoic acid]
increase of striatal DA levels and dopamine metabolite (DOPAC and HVA) levels ([1]; wild type C57/BL6 mice, single IP 20 mg/kg, 4 hours after dosing): 33%
striatal DA and DA metabolite levels ([1]; wt mice, single IP 10 mg/kg, 4 hours): increased
cell survival against MPP+ ([2]; 12.5 μM, varying concentrations of MPP+): significantly increased cell survival
number of surviving cells after MPP+ ([2]; pretreated 12-24 h, MPP+ 24 hours, MTT): approximately doubles
cell survival against H2O2 [3]: significantly increased cell survival
motor coordination (rotarod test) ([4]; 6-OHDA, 10 mg/kg IP every 12 hours for 14 days): almost entirely restored to control levels
reduction of apomorphine induced contralateral turns ([4]; 6-OHDA, vs vehicle, listed as Compound 3): approximately 8 fold
reduction of apomorphine induced contralateral turns ([4]; 6-OHDA, vs vehicle, listed as compound 3): over 8 fold
increase in number of surviving neuronal bodies (SNpc) ([4]; 6-OHDA, IP 10 mg/kg every 12 hours for 15 days): 256.55%
preservation of striatal TH(+) DAergic projections (innervation) ([4]; 6-OHDA, vs vehicle): 10 fold
Rotarod test improvement ([4]; unilateral 6-OHDA, compound 3 vs vehicle (n=5)): 12 fold
increase of GCH1 expression [5]: about 42%
increase of AADC expression [6]: about 70%
protection from MPP+ induced toxicity [7]: protects
number of surviving neurons after MPP+ exposure [8]: double
striatal DA and DA metabolite levels [9]: increase
